Several values for one entry are separate records, joined by “and”; a condition that tells them apart may be missing. Equal entries are not always repeated.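 Five compound concentrations were applied to cells in 96-well plates for 48 hours; endpoints were derived by simple linear interpolation of the resulting dose-response curve. The concentration for 50% growth inhibition is given as GI50. At the TGI there is no net growth.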
How the values were obtained:
Assay in all cases: NCI tumour cell line growth inhibition, 48 h
[1] = test system: OVCAR-3 ovarian
[2] = test system: SF-268 CNS
[3] = test system: P388/ADR leukemia
[4] = test system: NCI-H522 lung
[5] = test system: 786-0 renal
[6] = test system: K-562 leukemia
[7] = test system: BT-549 breast
[8] = test system: RXF 393 renal
[9] = test system: M19-MEL melanoma
[10] = test system: MALME-3M melanoma
[11] = test system: ACHN renal
[12] = test system: KM20L2 colon
[13] = test system: A549 NSCLC
[14] = test system: HS 578T breast
[15] = test system: NCI/ADR-RES ovarian
[16] = test system: SF-295 CNS
[17] = test system: DU-145 prostate
[18] = test system: SK-MEL-28 melanoma
[19] = test system: SN12C renal
[20] = test system: SNB-75 CNS
[21] = test system: EKVX NSCLC
[22] = test system: MCF7 breast
[23] = test system: SF-539 CNS
[24] = test system: SK-OV-3 ovarian
[25] = test system: NCI-H226 lung
[26] = test system: HCT-15 colon
[27] = test system: NCI-H23 lung
[28] = test system: MDA-MB-231 breast
[29] = test system: RPMI-8226 leukemia
[30] = test system: SW-620 colon
[31] = test system: U251 CNS
[32] = test system: TK-10 renal
[33] = test system: SK-MEL-5 melanoma
[34] = test system: A498 renal
[35] = test system: SNB-78 CNS
[36] = test system: HCT-116 colon
[37] = test system: HT29 colon
[38] = test system: NCI-H460 lung
[39] = test system: T-47D breast
[40] = test system: HOP-92 NSCLC
[41] = test system: MDA-MB-435
[42] = test system: SK-MEL-2 melanoma
[43] = test system: OVCAR-5 ovarian
[44] = test system: UO-31 renal
[45] = test system: HOP-62 NSCLC
[46] = test system: KM12 colon
[47] = test system: SR leukemia
[48] = test system: IGROV1 ovarian
[49] = test system: PC-3 prostate
[50] = test system: LOX IMVI melanoma
[51] = test system: UACC-62 melanoma

In the case of `CCN(CC)CCOc1cccc2nc3c(cc12)Cn1c-3cc2c(c1=O)COC(=O)C2(O)CC` (configuration not stated), the GI50 [1] is reported as 5.64 µM and 9.73 µM, the TGI [1] is reported as 20.3 µM and 25.9 µM and the GI50 [2] is reported as 0.212 µM and 0.188 µM. For the same molecule, the TGI [2] was 11.7 µM, the GI50 [3] was 2.56 µM and the TGI [3] was 8.27 µM. For the same molecule, the GI50 [4] was 7.54 µM and 1.36 µM, the TGI [4] was 23.1 µM and 14.5 µM and the GI50 [5] was 0.595 µM. The TGI [5] was 11.7 µM, the GI50 [6] was 2.53 µM and the TGI [6] was greater than 46.9 µM. For the same molecule, the GI50 [7] was 2.99 µM, the TGI [7] was 17.2 µM and the GI50 [8] was 1.4 µM and 10.6 µM. The TGI [8] was 6.08 µM and 28.7 µM, the GI50 [9] was 3.74 µM and 2.38 µM and the TGI [9] was 18.5 µM and 17 µM. The GI50 [10] was 11.1 µM and 12.3 µM, the TGI [10] was 24.6 µM and 25 µM and the GI50 [11] was 0.675 µM. It also gave a TGI [11] greater than 100 µM, a GI50 [12] of 2 µM and a TGI [12] of 14.4 µM. For the same molecule, the GI50 [13] was 0.787 µM and 2.06 µM, the TGI [13] was 20.4 µM and 13 µM and the GI50 [14] was 83.9 µM. The TGI [14] was greater than 100 µM, the GI50 [15] was 0.886 µM and 3.07 µM and the TGI [15] was 18 µM and 19.1 µM. The GI50 [16] was 0.261 µM and 0.691 µM, the TGI [16] was 5.19 µM and 9.4 µM and the GI50 [17] was 0.423 µM. For the same molecule, the TGI [17] was 3.77 µM, the GI50 [18] was 7.51 µM and 12.3 µM and the TGI [18] was 20.7 µM and 30 µM. The GI50 [19] was 0.266 µM and 0.747 µM, the TGI [19] was 9.16 µM and > 41.5 µM and the GI50 [20] was 1.34 µM and 0.545 µM. For the same molecule, the TGI [20] was 19.5 µM and 5.09 µM, the GI50 [21] was 7.37 µM and the TGI [21] was greater than 40 µM. For the same molecule, the GI50 [22] was 0.182 µM and 0.449 µM, the TGI [22] was 14.9 µM and 22.4 µM and the GI50 [23] was 0.267 µM and 0.774 µM. The TGI [23] was 1.47 µM and 3.93 µM, the GI50 [24] was 4.39 µM and the TGI [24] was greater than 43.4 µM. The GI50 [25] was 0.963 µM and 2.23 µM, the TGI [25] was 10.9 µM and 16.8 µM and the GI50 [26] was 5.14 µM and 8.13 µM. For the same molecule, the TGI [26] was 26.1 µM and 37.8 µM, the GI50 [27] was 0.506 µM and 0.87 µM and the TGI [27] was 4.19 µM and 4.86 µM. It also gave a GI50 [28] of 19.8 µM, a TGI [28] of 46.4 µM and a GI50 [29] of 1.47 µM. The TGI [29] was 22.5 µM, the GI50 [30] was 2.17 µM and 4.33 µM and the TGI [30] was 29.7 µM and 36.6 µM. For the same molecule, the GI50 [31] was 0.0867 µM and 0.358 µM, the TGI [31] was 1.43 µM and 11.1 µM and the GI50 [32] was 26.7 µM. For the same molecule, the TGI [32] was greater than 100 µM, the GI50 [33] was 1.08 µM and the TGI [33] was 6.31 µM. For the same molecule, the GI50 [34] was 2.13 µM and 3.91 µM, the TGI [34] was 6.74 µM and 18.2 µM and the GI50 [35] was 14.1 µM. The TGI [35] was 80.2 µM, the GI50 [36] was 0.403 µM and 1.29 µM and the TGI [36] was 10.9 µM and 14.2 µM. For the same molecule, the GI50 [37] was 2.19 µM and 2.44 µM, the TGI [37] was 12.7 µM and 13.5 µM and the GI50 [38] was 0.0754 µM and 0.282 µM. The TGI [38] was 1.88 µM and 11.8 µM, the GI50 [39] was 0.739 µM and the TGI [39] was 7.25 µM. The GI50 [40] was 5.42 µM and 4.83 µM, the TGI [40] was 22.5 µM and 18.3 µM and the GI50 [41] was 12.2 µM. The TGI [41] was 28.2 µM, the GI50 [42] was 12.3 µM and 17.9 µM and the TGI [42] was 25.3 µM and 39.6 µM. The GI50 [43] was 0.45 µM and 3.46 µM, the TGI [43] was 3.81 µM and 32.7 µM and the GI50 [44] was 1.8 µM and 3.19 µM. For the same molecule, the TGI [44] was 8.7 µM and 11.9 µM, the GI50 [45] was 0.356 µM and the TGI [45] was 2.63 µM. For the same molecule, the GI50 [46] was 4.53 µM and 7.49 µM, the TGI [46] was 18.5 µM and 25.6 µM and the GI50 [47] was 0.169 µM. The TGI [47] was 0.716 µM, the GI50 [48] was 5.77 µM and 4.63 µM and the TGI [48] was 21.6 µM and > 44.8 µM. The GI50 [49] was 4.62 µM, the TGI [49] was greater than 100 µM and the GI50 [50] was 0.429 µM and 0.508 µM. The TGI [50] was 11.3 µM and 12.1 µM, the GI50 [51] was 0.147 µM and 0.273 µM and the TGI [51] was 0.955 µM and 1.56 µM.
`CCCCCCCCCCCC[C@@H](O)[C@H]1CC[C@H]([C@H](O)CCCC[C@H](O)CCCCC[C@@H](O)CC2=C[C@H](C)OC2=O)O1` was tested, and the GI50 [1] was 1.41 µM and 1.56 µM, the TGI [1] was 2.71 µM and 4.05 µM and the GI50 [2] was 2.38 µM. The TGI [2] was 6.01 µM and 11.2 µM, the TGI [3] was 7.53 µM and the TGI [4] was 4.45 µM. The TGI [5] was 6.42 µM and 8.45 µM, the GI50 [6] was 0.302 µM and the TGI [6] was 7.06 µM. It also gave a TGI [7] of 24 µM, a TGI [8] of 8.02 µM and a TGI [9] of 5.71 µM. It also gave a GI50 [10] of 3.49 µM, a TGI [10] of 8.59 µM and a GI50 [11] of 2.74 µM. The TGI [11] was 6.53 µM and 14.9 µM, the TGI [12] was 8.96 µM and the GI50 [13] was 1.71 µM. The TGI [13] was 8.37 µM and 11.3 µM, the GI50 [14] was 4.22 µM and the TGI [14] was 7.06 µM and 22.1 µM. The TGI [15] was 5.42 µM and 11.2 µM, the TGI [16] was 5.31 µM and 8.02 µM and the GI50 [17] was 7.93 µM. For the same molecule, the TGI [17] was 21.3 µM, the GI50 [18] was 3.77 µM and the TGI [18] was 6.19 µM and 9.93 µM. The TGI [19] was 7.66 µM and 15.6 µM, the GI50 [20] was 4.02 µM and the TGI [20] was 7.77 µM and 10.3 µM. For the same molecule, the GI50 [21] was 2.17 µM, the TGI [21] was 6.88 µM and 12.5 µM and the TGI [22] was 5.13 µM and 6.79 µM. For the same molecule, the GI50 [23] was 4.18 µM, the TGI [23] was 5.59 µM and 11.2 µM and the TGI [24] was 11.4 µM. The GI50 [25] was 1.53 µM, the TGI [25] was 3.54 µM and 18.2 µM and the GI50 [26] was 2.83 µM. The TGI [26] was 5.8 µM and 9.73 µM, the GI50 [27] was less than 0.051 µM and the TGI [27] was 5.8 µM and 10.2 µM. For the same molecule, the GI50 [28] was 2.86 µM, the TGI [28] was 7.56 µM and 10.6 µM and the GI50 [29] was 1.56 µM and 0.888 µM. For the same molecule, the TGI [29] was 7.92 µM and 7.46 µM, the TGI [30] was 6.58 µM and 12.9 µM and the GI50 [31] was 3.31 µM. The TGI [31] was 11.6 µM, the GI50 [32] was 3.94 µM and the TGI [32] was 6.59 µM and 15.3 µM. For the same molecule, the GI50 [33] was 0.275 µM, the TGI [33] was 7.16 µM and 2.21 µM and the GI50 [34] was 5.27 µM. For the same molecule, the TGI [34] was 9.41 µM and 13.6 µM, the TGI [35] was 15.2 µM and the GI50 [36] was 0.425 µM. For the same molecule, the TGI [36] was 5.2 µM and 6.56 µM, the TGI [37] was 5.64 µM and 8.54 µM and the GI50 [38] was 2.4 µM. The TGI [38] was 5.16 µM and 11.7 µM, the GI50 [39] was 1.74 µM and the TGI [39] was 14.1 µM. The TGI [40] was 6.23 µM and 9.94 µM, the GI50 [41] was 2.26 µM and the TGI [41] was 5.43 µM and 12 µM. For the same molecule, the GI50 [42] was 1.3 µM, the TGI [42] was 2.6 µM and 1.68 µM and the GI50 [43] was 1.59 µM and 5.77 µM. For the same molecule, the TGI [43] was 3.05 µM and 17.9 µM, the GI50 [44] was 1.3 µM and the TGI [44] was 5.11 µM and 7.51 µM. The GI50 [45] was 3.98 µM, the TGI [45] was 5.41 µM and 10.6 µM and the GI50 [46] was 1.98 µM. For the same molecule, the TGI [46] was 5.17 µM and 12.3 µM, the GI50 [47] was 1.11 µM and the TGI [47] was 3.87 µM. The GI50 [48] was 3.58 µM, the TGI [48] was 6.05 µM and 8.67 µM and the GI50 [49] was 2.43 µM. The TGI [49] was 5.16 µM and 12.3 µM, the GI50 [50] was 0.809 µM and the TGI [50] was 4.92 µM and 4.19 µM. The TGI [51] was 5.14 µM and 6.06 µM.

Source: PubChem BioAssay (NCI)
